The source of these data is ChEMBL document CHEMBL4706736, “Modulating Androgen Receptor in the Therapeutic Intervention for Prostate Cancer and Kennedy's Disease” (2021).

Structures are written as SMILES. Where a SMILES comes first, the peptide text is derived from it. [ ]: non-standard residue; d: D form. The star is where a group is joined. X1 = O=C(COc1c(-c2csc(N3CCOCC3)n2)ccc(F)c1F)NCCCCCCN*; X4 = O=C(COc1c(-c2csc(N3CCOCC3)n2)ccc(F)c1F)NCCCCN*; X2 = Fc1ccc(-c2csc(N3CCOCC3)n2)c(OCCOCCOCCN*)c1F; X3 = O=C(NCCCCCCN*)c1cccc2sc(N3CCOCC3)nc12; Dip = N[C@H](C(=O)O)C(c1ccccc1)c1ccccc1; Chg = N[C@H](C(=O)O)C1CCCCC1; NMeA = CN[C@@H](C)C(=O)O

The subject of the assay is CWR22R. Kind of assay: Antiproliferative activity against human 22Rv1 cells assessed as reduction in cell viability at 10 uM incubated for 48 hrs by automated cell counting analysis relative to control. The class given is functional.
With `CN[C@@H](C)C(=O)N[C@H](C(=O)N1CCC[C@H]1C(=O)N[C@H](C(=O)NCCCCNC(=O)COc1c(-c2csc(N3CCOCC3)n2)ccc(F)c1F)C(c1ccccc1)c1ccccc1)C1CCCCC1` (H-[NMeA][Chg]P[Dip]-X4), the inhibition (usually the share of the control response that was lost under treatment) at 10 µM was greater than 50%.

On to `COc1cc(C(=O)NCCCCNC(=O)COc2c(-c3csc(N4CCOCC4)n3)ccc(F)c2F)ccc1NC(=O)[C@@H]1N[C@@H](CC(C)(C)C)[C@](C#N)(c2ccc(Cl)cc2F)[C@H]1c1cccc(Cl)c1F`, for which the inhibition at 10 µM was greater than 50%.

On to `COc1cc(C(=O)NCCOCCOCCOc2c(-c3csc(N4CCOCC4)n3)ccc(F)c2F)ccc1NC(=O)[C@@H]1N[C@@H](CC(C)(C)C)[C@](C#N)(c2ccc(Cl)cc2F)[C@H]1c1cccc(Cl)c1F`, for which the inhibition at 10 µM is greater than 50%.

For `CN[C@@H](C)C(=O)N[C@H](C(=O)N1Cc2cc(OCCOCCOCCOc3c(-c4csc(N5CCOCC5)n4)ccc(F)c3F)ccc2C[C@H]1C(=O)N[C@@H]1CCCc2ccccc21)C(C)(C)C`, the inhibition at 10 µM was greater than 50%.

In the case of `NCCCCCCCCCCNc1cccc2c1C(=O)N(C1CCC(=O)NC1=O)C2=O` (stereo unspecified), the inhibition at 10 µM was less than 50%.

`Cc1ncsc1-c1ccc([C@H](C)NC(=O)[C@@H]2C[C@@H](O)CN2C(=O)[C@@H](NC(=O)CCCCNC(=O)COc2c(-c3csc(N4CCOCC4)n3)ccc(F)c2F)C(C)(C)C)cc1`: the inhibition at 10 µM is less than 50%.

On to `CN[C@@H](C)C(=O)N[C@H](C(=O)N1Cc2cc(OCCOCCOc3c(-c4csc(N5CCOCC5)n4)ccc(F)c3F)ccc2C[C@H]1C(=O)N[C@@H]1CCCc2ccccc21)C(C)(C)C`, for which the inhibition at 10 µM is greater than 50%.

Take `O=C1CCC(N2C(=O)c3cccc(NCCCCCCNC(=O)c4cn(-c5csc(N6CCOCC6)n5)cn4)c3C2=O)C(=O)N1` (stereo unspecified): the inhibition at 10 µM is 0%.

With `CN[C@@H](C)C(=O)N[C@H](C(=O)N1CCC[C@H]1C(=O)N[C@H](C(=O)NCCCCCCNC(=O)c1cccc2sc(N3CCOCC3)nc12)C(c1ccccc1)c1ccccc1)C1CCCCC1` (H-[NMeA][Chg]P[Dip]-X3), the inhibition at 10 µM was greater than 50%.

Turning to `CN[C@@H](C)C(=O)N[C@H](C(=O)N1CCC[C@H]1C(=O)N[C@H](C(=O)NCCOCCOCCOc1c(-c2csc(N3CCOCC3)n2)ccc(F)c1F)C(c1ccccc1)c1ccccc1)C1CCCCC1` (H-[NMeA][Chg]P[Dip]-X2), the inhibition at 10 µM is greater than 50%.

Regarding `CN[C@@H](C)C(=O)N[C@H](C(=O)N1CCC[C@H]1C(=O)N[C@H](C(=O)NCCCCCCNC(=O)COc1c(-c2csc(N3CCOCC3)n2)ccc(F)c1F)C(c1ccccc1)c1ccccc1)C1CCCCC1` (H-[NMeA][Chg]P[Dip]-X1), the inhibition at 10 µM was greater than 50%.
